Patent US4067142A, “Echinatin glycosides and their preparation” (Kabushiki Kaisha Hayashibara Seibutsu Kagaku Kenkyujo, priority 1975, dated 1978)
In brackets after ≈: the same amount, converted by molar mass.

Key:
[1] = water solubility at 15° C; format: physicochemical; conditions: for solubility: water
[2] = test system: human lymphoblastoid cells (E.B. -3 cells, Burkitt lymphoma); test: inhibiting action on the growth of human lymphoblastoid cells (E.B.-3, Burkitt lymphoma) in suspension culture, cell count; format: cell-based; conditions: 100 μg per ml medium, added on the fourth day of cultivation; R.P.M.I. 1640 + 30% fetal calf serum, 37° C; vs non-added culture
Procedure: Human lymphoblastoid cells (E.B. -3 cells, Burkitt lymphoma) were grown in suspension culture and maintained in 2 ml R.P.M.I. 1640 medium (manufactured by Flow Laboratories Inc., U.S.A.) supplemented with 30% fetal calf serum, placed in Petri's dish, diameter 20 mm at a temperature of 37° C.
The numbers of human lymphoblastoid cells were counted according to the method used for counting the numbers of leucocyte with Burke's blood count platelet.

[3] = 15° C, parts or percentages by weight

## COc1cc(O)ccc1/C=C/C(=O)c1ccc(O)cc1 [echinatin]
[1]; temperature not stated
  water solubility, in words: extremely low water solubility
[1]; [3]
  solubility: < 1 µg/mL

## COc1cc(O[C@@H]2O[C@H](CO)[C@@H](O)[C@H](O)[C@H]2O)ccc1/C=C/C(=O)c1ccc(O[C@@H]2O[C@H](CO)[C@@H](O)[C@H](O)[C@H]2O)cc1 [echinatin-4,4'-diglucoside]
[1]; [3]
  solubility: ~5000 µg/mL (≈ 8410 µM)

## echinatin-4'-glucoside
[1]; [3]
  water solubility: approximately 1%
[2]
  inhibiting action on the growth of human lymphoblastoid cells: possesses an inhibiting action on the growth of human lymphoblastoid cells

## COc1cc(O[C@@H]2O[C@H](CO)[C@@H](O)[C@H](O)[C@H]2O)ccc1/C=C/C(=O)c1ccc(O)cc1 [echinatin-4-glucoside]
[1]; [3]
  solubility: ~1000 µg/mL (≈ 2310 µM)
